Data reported in patent US5215744A, “Methods for the treatment of tumors” (Boehringer Ingelheim GmbH, priority 1987, dated 1993).
Entries after “also recorded” stand apart in the source; their conditions may differ.

Columns and labels:
[1] = test system: antiviral activity in culture medium; assay: Antiviral activity (IFN production) in culture medium of treated cells; assay type: cell-based; settings: 0.1 μM dipyridamole-treated cells
Excerpt: Virol. 67:651-611 (1986).

[2] = test system: plasminogen activator-like protease; assay: Protease activity after dipyridamole exposure (^125 I-fibrin release); assay type: cell-based, human (MM-1CB cells); settings: dipyridamole alone; MM-1CB, 30 min (FIG. 13)
Excerpt: Assay methods were similar to those described elsewhere (Suzuki et al., Mutation Res. 198:207-214 (1988)). Results were expressed as the total amount of ^125 I-radioactivity released from the labelled fibrin per protein contents.

[3] = test system: ridgway osteogenic sarcoma; settings: with MTX; cited from earlier work
MM-1CB cells [4] = assay: Tumor growth in nude mice, treatment from 3 days after MM-1CB implantation; assay type: in vivo, human tumor cells in male athymic nude mice (BALB/cA JcL-nu); settings: combination of dipyridamole and interferon, 3 days after injection, vs each agent alone (FIG. 9)
Description: Male athymic nude mice (BALB/cA JcL-nu) used were 4 week old and weighed 14 to 18 g at the beginning of the experiment. All mice were given a basal diet (FR-II, Funabashi Nojo Co., Ltd., Funabashi) ad libitum.
Control animals were treated with phosphate buffered saline.
On day 62 post tumor implantation the size of each tumor was measured by caliper (two dimensions) and the measurements were converted to an approximation of tumor weight employing the formula: (a×b^2)/2, where a and b are the length and width of tumor, respectively.

[5] = several hours after administration; cited from earlier work
MM-1CB cells [6] = assay: Growth rate of established tumors in nude mice; assay type: in vivo, human tumor cells in nude mice
Description: Growth rate of tumors after the apparent tumor appeared and then were treated with agents.
the two agents combination

[7] = test system: human ovarian carcinoma cell line; settings: cited from earlier work
DNA = settings: dipyridamole alone; cited from earlier work
DNA of MM-1CB cells = assay: Alkaline sucrose gradient assay (DNA damage); assay type: cell-based, human; settings: 10 μM dipyridamole 24 h then 10^3 IU/ml IFNβ 24 h (FIG. 12)
Description: Cells (2×10^5), prelabelled with [^14 C]Thymidine, were seeded in 60 mm culture dishes and then cultured with and without agents. After the indicated tie cells were scraped off from the dishes and suspended in ice-cold phosphate-buffer saline solution containing 10 mM EDTA.
The cell suspensions were then exposed to 100R of X-rays in order to facilitate the unwinding and separation of DNA strands, and the solution containing SDS was applied to the cells, 2% of the final concentration of sodium dodecil sulfate (SDS).
The cell lysates were layered on alkaline solution with 5-20% sucrose gradients containing 0.1M NaOH and 0.1M NaCl. Then the gradients were immediately centrifuged at 10,000 rpm for 17 hr at 20° C. in a Hitachi RPS55T rotor.
After centrifugation, solutions were fractionated and collected onto Whatmann 17 CHROMA paper strips. Radioactivity of acid-insoluble materials on the strips were counted in toluene based scintillator. The percentage of the total dpm in each fraction was calculated taking the input dpm as 100%.
C 10^3 IU/ml IFNβ exposure for 48 hr;

KT cells = assay: DNA synthetic activity test ([^3 H]dTHD uptake into acid insoluble materials); assay type: cell-based, human; settings: 0.1 μM dipyridamole with HuIFN-β (FIG. 8)
Excerpt: Four established cell lines were used. These were MM-1CB, derived from tissues of malignant melanoma (level IV, pT4 N0 M0) in a person (Jpn. J. Dermatol. 96:947 (1986)); KT, derived from metastatic brain tumor in a person (J. Rad. Res. 26:59 (1985) and The 44th Meeting of Japanese Cancer Association, 718 (1985)); PLC/PRF/5, derived from human hepatoma (Brit. J. Cancer 34:509-515 (1976)) and a transformed cell line RSa (Virology 135:20-29 (1984), and J. Natl. Cancer Inst. 56:919-926 (1976)).
[^3 H]dTHD uptake into acid insoluble materials were estimated in KT and RSa cells treated with the various agents, as described in J. Gen. Virol. 67:651-661 (1986).

OCCN(CCO)c1nc(N2CCCCC2)c2nc(N(CCO)CCO)nc(N3CCCCC3)c2n1 [dipyridamole, 2,6-bis(diethanolamine)-4,8-dipiperidino-pyrimido[5,4-d]pyrimidin]
levels of antiviral activity in culture medium [1]: no detectable levels of antiviral activity | activity of plasminogen activator-like protease [2]: induced after a few minutes of treatment | antitumor activity of MTX [3]: not dramatically improved | inhibition of tumor growth (MM-1CB cells [4]): more noticeably inhibited | concentration in blood [5]: a few micromoles | depression of tumor growth, combination (MM-1CB cells [6]; two agents given after tumor reached more than about 1 cm in diameter (FIG. 10)): not drastically effective in depressing tumor growth | effect of dipyridamole treatment prior to interferon (MM-1CB cells [6]; vs simultaneous administration (FIG. 10)): more effective than a simultaneous administration of the two agents | cytotoxicity of its own ([7]; dipyridamole alone): no cytotoxicity of its own | PALA activity ([7]; with PALA): increased PALA activity | DNA damage (DNA): does not damage DNA | DNA damage under alkaline assay conditions (DNA of MM-1CB cells): resulted in damaged DNA; also recorded: the most part DNA shifted into lower molecular mass | enhancement of HuIFN inhibitory effect on DNA synthesis (KT cells): remarkably enhanced
